By IC50 is commonly meant the concentration that inhibits the measured activity by half.

Assay [1] has as its system anti-IgM-induced expression of CD69 on CD19 positive cells (B cells) in human PBMCs. Put plainly: Assay C: PBMC IC50 assay (anti-IgM-induced CD69 expression). The format is cell-based. To be noted: anti-IgM stimulation. How it is done: Btk is critical for mediating the signalling of B cell antigen receptor (BCR) after anti-IgM stimulation. Based on this principle, a functional cell-based assay was established to determine the potency of compounds at inhibiting anti-IgM-induced expression of CD69, a downstream BCR signaling event, in freshly isolated human peripheral blood mononuclear cells (PBMCs). In the assay, a 90 μl PBMC suspension containing 2.5×10^5 cells was pre-treated with 10 μl of test compound at various concentrations for an hour, and then incubated overnight (approximately 16-18 hours) with 5 μl 420 μg/ml affiniPure F(ab′)2 fragment goat anti-human IgM Fc fragment per well (Dianova, Cat. No.: 109-006-129). After the incubation, the cells were washed and immunostained with an APC-labeled mouse anti-human CD69 (BD Biosciences; clone: FN50), a PerCP-Cy5.5 labelled mouse anti-human CD19 (BD Biosciences; clone: SJ25C1) and a FITC-labelled mouse anti-human CD3 (BD Biosciences; clone: HIT3a), and fixed for flow cytometric analysis of CD69 expression on CD19 positive cells (B cells). The percentage of CD69 expressing CD19 positive cells was plotted against the concentrations of test compounds to obtain a concentration response curve, and calculate an IC50 value as a measure of the potency of test compounds in the assay.

In assay [2] the target is full-length human BTK (Homo sapiens (Human), UniProt Q06187). In words: Assay A: microfluidic off-chip mobility shift assay against BTK enzyme. The format is biochemical.

Molecules are shown by their SMILES.

full-length human BTK, sequence (Q06187 whole entry): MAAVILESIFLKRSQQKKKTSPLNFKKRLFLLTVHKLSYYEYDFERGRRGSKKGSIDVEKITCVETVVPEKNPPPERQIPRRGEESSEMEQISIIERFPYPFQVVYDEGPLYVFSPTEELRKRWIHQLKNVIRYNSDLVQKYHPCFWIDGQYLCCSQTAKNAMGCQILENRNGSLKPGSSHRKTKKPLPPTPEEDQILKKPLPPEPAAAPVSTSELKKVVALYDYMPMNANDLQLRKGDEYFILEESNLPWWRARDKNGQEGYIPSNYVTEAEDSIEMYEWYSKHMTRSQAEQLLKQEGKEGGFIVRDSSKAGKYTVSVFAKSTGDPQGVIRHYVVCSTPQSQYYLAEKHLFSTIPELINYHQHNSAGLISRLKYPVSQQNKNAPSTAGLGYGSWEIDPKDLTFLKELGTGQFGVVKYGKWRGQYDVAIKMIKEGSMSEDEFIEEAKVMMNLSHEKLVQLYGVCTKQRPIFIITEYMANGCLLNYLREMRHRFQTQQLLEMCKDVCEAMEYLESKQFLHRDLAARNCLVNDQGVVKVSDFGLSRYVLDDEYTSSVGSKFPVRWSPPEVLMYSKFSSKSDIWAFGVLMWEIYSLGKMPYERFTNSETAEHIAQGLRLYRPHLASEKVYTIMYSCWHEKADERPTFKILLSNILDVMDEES

For the compound `Cn1cc(-c2nc3c(-c4cnc(CNC(=O)c5noc(C(C)(C)C)n5)c(F)c4)ccnc3[nH]2)cn1` [Example 12, 5-tert-Butyl-[1,2,4]oxadiazole-3-carboxylic acid {3-fluoro-5-[2-(1-methyl-1H-pyrazol-4-yl)-3H-imidazo[4,5-b]pyridin-7-yl]-pyridin-2-ylmethyl}-amide], the IC50 is 100 to 1000 nM in assay [1] and below 100 nM in assay [2].

`Cn1cc(-c2nc3c(-c4ccc(C5(NC(=O)c6noc(C(C)(C)C)n6)CC5)c(F)c4)ccnc3[nH]2)cn1` [Example 51, 5-tert-Butyl-N-(1-[2-fluoro-4-[2-(1-methyl-1H-pyrazol-4-yl)-3H-imidazo[4,5-b]pyridin-7-yl]phenyl]cyclopropyl)-1,2,4-oxadiazole-3-carboxamide]: the IC50 in assay [1] and in assay [2] was below 100 nM throughout.

Turning to `Cn1cc(-c2nc3c(-c4ccc(CNC(=O)c5noc(C6CC6)n5)c(F)c4)ccnc3[nH]2)cn1` [Example 59, 5-Cyclopropyl-N-([2-fluoro-4-[2-(1-methyl-1H-pyrazol-4-yl)-3H-imidazo[4,5-b]pyridin-7-yl]phenyl]methyl)-1,2,4-oxadiazole-3-carboxamide], the IC50 in assay [1] was 100 to 1000 nM; in assay [2] it was below 100 nM.

In the case of `COc1cccc(-c2nc3c(-c4ccc(CNC(=O)c5ccc(C6CC6)cc5)c(F)c4)ccnc3[nH]2)c1` [Example 64, 4-Cyclopropyl-N-([2-fluoro-4-[2-(3-methoxyphenyl)-3H-imidazo[4,5-b]pyridin-7-yl]phenyl]methyl) benzamide], the IC50 in assay [1] is 100 to 1000 nM; in assay [2], below 100 nM.

For `CN1CCN(Cc2ccc(-c3nc4c(-c5ccc(CNC(=O)c6noc(C(C)(C)C)n6)c(F)c5)ccnc4[nH]3)nc2)CC1` [Example 69, 5-tert-Butyl-N-[[2-fluoro-4-(2-[5-[(4-methylpiperazin-1-yl)methyl]pyridin-2-yl]-3H-imidazo[4,5-b]pyridin-7-yl)phenyl]methyl]-1,2,4-oxadiazole-3-carboxamide], the IC50 in assay [1] and in assay [2] was below 100 nM each time.

As to `COc1cccc(-c2nc3c(-c4ccc(CNC(=O)c5noc(C(C)(C)C)n5)c(F)c4)ccnc3[nH]2)c1` [Example 73, 5-tert-Butyl-N-([2-fluoro-4-[2-(3-methoxyphenyl)-3H-imidazo[4,5-b]pyridin-7-yl]phenyl]methyl)-1,2,4-oxadiazole-3-carboxamide], the IC50 was 100 to 1000 nM in assay [1] and below 100 nM in assay [2].

With `CN1CC=C(c2ccc(-c3nc4c(-c5ccc(CNC(=O)c6noc(C(C)(C)C)n6)c(F)c5)ccnc4[nH]3)nc2)CC1` [Example 85, 5-tert-Butyl-N-[(2-fluoro-4-[2-[5-(1-methyl-1,2,3,6-tetrahydropyridin-4-yl)pyridin-2-yl]-3H-imidazo [4,5-b]pyridin-7-yl]phenyl)methyl]-1,2,4-oxadiazole-3-carboxamide; trifluoroacetic acid], the IC50 in assay [1] is 100 to 1000 nM; in assay [2], below 100 nM.

With `CCn1cc(-c2nc3c(-c4ccc(CNC(=O)c5noc(C(C)(C)C)n5)c(F)c4)ccnc3[nH]2)cn1` [Example 131, 5-tert-Butyl-[1,2,4]oxadiazole-3-carboxylic acid 4-[2-(1-ethyl-1H-pyrazol-4-yl)-3H-imidazo[4,5-b]pyridin-7-yl]-2-fluoro-benzylamide], the IC50 in assay [1] and in assay [2] was below 100 nM throughout.

For the compound `CC(C)(C)c1nc(C(=O)NCc2ccc(-c3ccnc4[nH]c(C5=CCNCC5)nc34)cc2F)no1` [Example 134, 5-tert-Butyl-[1,2,4]oxadiazole-3-carboxylic acid 2-fluoro-4-[2-(1,2,3,6-tetrahydro-pyridin-4-yl)-3H-imidazo[4,5-b]pyridin-7-yl]-benzylamide], the IC50 in assay [1] is 100 to 1000 nM; in assay [2], below 100 nM.

Consider `CCn1cc(-c2nc3c(-c4ccc(CNC(=O)c5nnc(C(C)(C)C)o5)c(F)c4)ccnc3[nH]2)cn1` [Example 135, 5-(tert-butyl)-N-(4-(2-(1-ethyl-1H-pyrazol-4-yl)-3H-imidazo[4,5-b]pyridin-7-yl)-2-fluorobenzyl)-1,3,4-oxadiazole-2-carboxamide], for which the IC50 in assay [1] and in assay [2] was below 100 nM throughout.
